According to article PMC10819767, “An ADAM10 Exosite Inhibitor Is Efficacious in an In Vivo Collagen-Induced Arthritis Model” (Pharmaceuticals, 2024):
Like-named read-outs stand apart in the source and are kept apart here.

Legend:
OPRK1 = test system: OPRK1; set-up: method as in PMID 34817776; settings: cited from earlier work
T-cell receptors = test system: T-cell receptors; set-up: method as in PubChem bioassay 504894; settings: ref PubChem bioassay 504894; cited from earlier work
adrenergic (ADRB2) = test system: adrenergic (ADRB2); set-up: method as in PMID 34817776; settings: cited from earlier work
[1] = Body weight and clinical signs of distress during CIA study; assay type: in vivo; settings: 10, 30, 50 mg/kg oral for 28 days
Description: Mice were weighed and observed every day, and notes were made on the signs of distress.

IL-6 = experiment: RA serum marker ELISA, IL-6, CIA mice; assay type: in vivo, C57 BL/6 mice
Method: (§1) The sample size for therapeutic evaluation was calculated using power analysis based on experimental data from similar studies. In a two-sided test and setting the α value at 0.05 and desired power at 0.95, the sample size turned out to be 5 per group. We also expected deaths during the experiments; therefore, we used the formula Nt = N/1-q, where Nt is the number of mice initially used, N is the number required at the end of the study, and q is the proportion of attrition, which is generally 10%. Thus, at the end of the study period, we expected to have data from at least 6 mice per group, which is enough to attain statistical significance if it exists. Data were analyzed using a one-way ANOVA followed by Dunnett’s test compared with the vehicle control. At the end of the study, the mice were anesthetized and sacrificed using CO2 euthanasia. The hind paws of the mice were subjected to a histopathological examination, and the serum was analyzed for CRP, TNF-α, IL-6, and IL-10, as described in the below sections.
(§2) RA serum marker analysis. Blood was collected from the tail vein, and 100 µL was used for the assays. All assays were conducted using the manufacturer’s instructions for the respective assay kits. The following assay kits were purchased: Mouse TNF-α GENLISA™ ELISA (Krishgen BioSystems cat#KB2145, Mumbai, India), Mouse IL-10 GENLISA™ ELISA (Krishgen BioSystems cat#KB2072), Mouse hsC-Reactive Protein, hs-CRP GENLISA™ ELISA (Krishgen BioSystems cat#KLM0318), Mouse IL-6 GENLISA™ ELISA (Krishgen BioSystems cat#KB2068).

OPRD1 = test system: OPRD1; set-up: method as in PMID 34817776; settings: cited from earlier work
IL-10 = experiment: RA serum marker ELISA, IL-10, CIA mice; assay type: in vivo, C57 BL/6 mice
Method: as §1, §2

[2] = Pharmacokinetics in plasma and synovial fluid after oral gavage; assay type: in vivo, Sprague Dawley male rats; settings: rat; for Cmax / AUC(0-inf) / AUC(0-t) / Tmax: male, Sprague Dawley; for Cmax: po, 10 mg/kg
Method: Pharmacokinetics of CID 3117694 in Sprague Dawley male rats. The CID 3117694 structure was confirmed using H1 NMR (Figure S1), and it was determined to be >95% pure via HPLC (Figure S2). To determine if CID 3117694 can be used in in vivo RA efficacy model studies, we conducted an in vivo pharmacokinetic (PK) study. CID 3117694 was formulated in 10% DMSO, 40% PEG400, 30% PG, and 20% H2O at 2 mg/mL and administered via oral gavage to Sprague Dawley male rats at 10 mg/kg. Blood and synovial fluid were collected at 15 min, 30 min, 1, 2, 4, 8, and 24 h and quantitated using LC/MS. PK parameters were calculated using WinNonLin 8.3.4 software.
Pharmacokinetics of CID 3117694. All animal studies were conducted in accordance with NSU IACUC guidelines. Study protocol #2021.04.DM2 was approved using NSU IACUC before the commencement of the studies. CID 3117694 was formulated in 10% DMSO, 40% PEG400, 30% PG, and 20% H2O at 2 mg/mL and administered via an intragastric (ig) gavage to six Sprague Dawley male rats at 10 mg/kg. The animals were anesthetized using isoflurane. Blood and synovial fluid were collected at 15 min, 30 min, 1 h, 2 h, 4 h, 8 h, and 24 h after the administration of CID 3117694. Synovial fluid (SF) was collected using a 23-gauge needle connected to a mini peristaltic pump via perfusion tubing. Sterile saline was infused at a constant rate of 100 μL/min^−1. After the infusion of 100 μL of the vehicle (sterile saline), the outflow tubing was connected to the 25-gauge needle to minimize pressure build-up within the joint space. The fluid was infused and withdrawn at a constant rate until a 250 μL basal sample was collected in a 1.5 mL centrifuge tube. Samples were immediately frozen at −20 °C. Blood was collected using a 25 G needle directly from the heart. The samples were prepared for LC-MS/MS analysis using the acetonitrile protein precipitation technique. Briefly, blank plasma and subject samples (plasma and SF samples) were retrieved from the deep freezer and allowed to thaw. The calibration curve standards (10 to 10,000 μg/mL of CID 3117694) and quality control samples were prepared using blank plasma. The thawed samples were vortexed to ensure the complete mixing of the contents. A total of 50 µL of each sample was transferred to the vials, and 200 µL of an Internal Standard (IS, telmisartan) mixed with acetonitrile was added to all the samples and vortexed. Samples were kept on the shaker for 5 min to ensure complete mixing of contents. The samples were centrifuged at 4000 rpm and 20 °C for 10 min, and the supernatant was transferred into auto-injector vials and loaded into the auto-sampler. A total of 5 µL was injected onto the API-4500 Q TRAP LC-MS/MS system. The samples were separated on a Phenomenex, Synergi C18 4.6 mm × 50 mm, 4 µm HPLC column using a 10 mM ammonium acetate + 0.1% Formic acid buffer as solvent A and 100% Acetonitrile as solvent B. PK parameters were quantitated using WinNonLin (Certara, Princeton, NJ, USA).

caspase 8 = test system: caspase 8; set-up: method as in PubChem database; settings: ref PubChem database; cited from earlier work
cardiac ion channel hERG = test system: cardiac ion channel hERG; set-up: method as in PubChem AID 1511; settings: ref PubChem AID 1511, cited from earlier work
[3] = CID 3117694 50 mg/kg/day, indomethacin 2.5 mg/kg
[4] = all tested doses (10, 30, 50 mg/kg), vs vehicle control
[5] = synovial fluid, 10 mg/kg oral gavage

## COc1cccc(C(=O)NNC(=O)C(=O)Nc2ccc(C)c(Cl)c2)c1 [CID 3117694]
OPRK1
  activity against OPRK1: inactive
T-cell receptors
  activity in assay for activators of T-cell receptors: inactivity
Adrenergic (ADRB2)
  activity against ADRB2: inactive
[1]
  body weight vs vehicle control: no significant differences in body weight
  clinical signs of distress: no clinical signs of distress
IL-6; [3]
  IL-6 blood level vs healthy control: decreased the markers to the level of the healthy control
IL-6; [4]
  concentration of IL-6 in the blood of arthritic mice: lowers
OPRD1
  activity against OPRD1: inactive
IL-10; [3]
  IL-10 blood level vs healthy control: decreased the markers to the level of the healthy control
IL-10; [4]
  concentration of IL-10 in the blood of arthritic mice: lowers
[2]; plasma, plasma, 10 mg/kg oral gavage, read-out: Cmax
  Cmax: 6640 ng/mL
[2]; plasma, plasma, 10 mg/kg oral gavage, read-out: Cmax, Concentration Plasma
  Cmax: 18.4 µM
[2]; plasma, plasma, 10 mg/kg oral, read-out: Cmax in plasma
  Cmax: 18.4 µM
[2]; synovial fluid, synovial fluid (SF), 10 mg/kg oral gavage, read-out: Cmax
  Cmax: 307 ng/mL
[2]; synovial fluid, synovial fluid, 10 mg/kg oral gavage, read-out: Cmax, Concentration SF
  Cmax: 0.849 µM
[2]; synovial fluid, synovial fluid, 10 mg/kg oral, read-out: Cmax in SF
  Cmax: 0.849 µM
[2]; plasma, 10 mg/kg oral gavage
  AUC(0-inf): 173000 ng·h/mL
  AUC(0-t): 33100 ng·h/mL
  Tmax: 1 h
[2]; [5]
  AUC(0-inf): 1120 ng·h/mL
  AUC(0-t): 1100 ng·h/mL
  Tmax: 1 h
[2]; 10 mg/kg ig gavage, 24 h
  concentration at the 24 h time point: below the limit of quantitation (LOQ)
[2]; 10 mg/kg oral
  oral bioavailability (in words): orally bioavailable
  time present in the blood at a steady-state concentration: at least 8 h
Caspase 8
  effect on caspase 8 activity: does not affect
Cardiac ion channel hERG; no EC50 value reported
  effect on hERG with pro-arrhythmic agents (in words): cardioprotective
Cardiac ion channel hERG
  hERG inhibition (in words): not an hERG inhibitor
